From US7964531B2, “3-phenoxy-4-pyridazinol derivatives and herbicidal composition containing the same” (Mitsui Chemicals Agro, Inc., priority 2001, dated 2011)

## Cc1ccc(S(=O)(=O)Oc2cc(Cl)nnc2Oc2ccccc2C(C)(C)C)cc1 [Compound No. 2224, 3-(2-tert-Butylphenoxy)-6-chloro-4-pyridazinyl 4-methylbenzenesulfonate]
  melting point: 98 to 99 °C

## Cc1ccc(S(=O)(=O)Oc2cc(Cl)nnc2Oc2ccccc2C2CCCCC2)cc1 [Compound No. 2230, 6-Chloro-3-(2-cyclohexylphenoxy)-4-pyridazinyl 4-methylbenzenesulfonate]
  melting point: 120 to 121 °C

## Cc1ccc(S(=O)(=O)Oc2cc(Cl)nnc2Oc2ccccc2-c2ccccc2)cc1 [Compound No. 2231, 3-([1,1′-Biphenyl]-2-yloxy)-6-chloro-4-pyridazinyl 4-methylbenzenesulfonate]
  melting point: 106 to 108 °C

## COc1ccccc1Oc1nnc(Cl)cc1OS(=O)(=O)c1ccc(C)cc1 [Compound No. 2232, 6-Chloro-3-(2-methoxyphenoxy)-4-pyridazinyl 4-methylbenzenesulfonate]
  melting point: 153 to 157 °C

## Cc1ccc(S(=O)(=O)Oc2cc(Cl)nnc2Oc2cccc(C(C)(C)C)c2)cc1 [Compound No. 2235, 3-(3-tert-Butylphenoxy)-6-chloro-4-pyridazinyl 4-methylbenzenesulfonate]
  melting point: 56 to 57 °C

## COc1cccc(Oc2nnc(Cl)cc2OS(=O)(=O)c2ccc(C)cc2)c1 [Compound No. 2238, 6-Chloro-3-(3-methoxyphenoxy)-4-pyridazinyl 4-methylbenzenesulfonate]
  melting point: 89 to 90 °C

## Cc1ccc(S(=O)(=O)Oc2cc(Cl)nnc2Oc2cccc3ccccc23)cc1 [Compound No. 2240, 6-Chloro-3-(1-naphthyloxy)-4-pyridazinyl 4-methylbenzenesulfonate]
  melting point: 92 to 94 °C

## Cc1ccc(S(=O)(=O)Oc2cc(Cl)nnc2Oc2ccc(C(C)(C)C)cc2Br)cc1 [Compound No. 2245, 3-(2-Bromo-4-tert-butylphenoxy)-6-chloro-4-pyridazinyl 4-methylbenzenesulfonate]
  melting point: 110 to 112 °C

## Cc1ccc(S(=O)(=O)Oc2cc(Cl)nnc2Oc2ccc(Cl)cc2C)cc1 [Compound No. 2246, 6-Chloro-3-(4-chloro-2-methylphenoxy)-4-pyridazinyl 4-methylbenzenesulfonate]
  melting point: 115 to 116 °C

## Cc1ccc(S(=O)(=O)Oc2cc(Cl)nnc2Oc2ccc(C)cc2C)cc1 [Compound No. 2247, 6-Chloro-3-(2,4-dimethylphenoxy)-4-pyridazinyl 4-methylbenzenesulfonate]
  melting point: 80 to 81 °C

## Cc1ccc(S(=O)(=O)Oc2cc(Cl)nnc2Oc2ccc(Br)cc2C(C)C)cc1 [Compound No. 2248, 3-(4-Bromo-2-isopropylphenoxy)-6-chloro-4-pyridazinyl 4-methylbenzenesulfonate]
  melting point: 119 to 122 °C

## Cc1ccc(S(=O)(=O)Oc2cc(Cl)nnc2Oc2cc(C)ccc2C(C)C)cc1 [Compound No. 2249, 6-Chloro-3-(2-isopropyl-5-methylphenoxy)-4-pyridazinyl 4-methylbenzenesulfonate]
  melting point: 90 to 92 °C

## Cc1ccc(S(=O)(=O)Oc2cc(Cl)nnc2Oc2c(C)cccc2C)cc1 [Compound No. 2263, 6-Chloro-3-(2,6-dimethylphenoxy)-4-pyridazinyl 4-methylbenzenesulfonate]
  melting point: 89 to 90 °C

## Cc1ccc(S(=O)(=O)Oc2cc(Cl)nnc2Oc2c(C)cccc2C2CC2)cc1 [Compound No. 2265, 6-Chloro-3-(2-cyclopropyl-6-methylphenoxy)-4-pyridazinyl 4-methylbenzenesulfonate]
  melting point: 85 to 87 °C

## Cc1ccccc1Oc1nnc(Cl)cc1OS(=O)(=O)c1ccc([N+](=O)[O-])cc1 [Compound No. 2287, 6-Chloro-3-(2-methylphenoxy)-4-pyridazinyl 4-nitrobenzenesulfonate]
  melting point: 166 to 169 °C

## COCc1c(Cl)nnc(Oc2ccccc2C)c1O [Compound No. 2378, 6-Chloro-5-(methoxymethyl)-3-(2-methylphenoxy)-4-pyridazinol]
  melting point: 123 to 126 °C

## Cc1ccccc1Oc1nnc(Cl)c(Oc2ccccc2C)c1O [Compound No. 2395, 6-Chloro-3,5-bis(2-methylphenoxy)-4-pyridazinol]
  melting point: 110 to 115 °C

## Cc1ccccc1Oc1nnc(Br)cc1O [Compound No. 2411, 6-Bromo-3-(2-methylphenoxy)-4-pyridazinol]
  melting point: 197 to 198 °C

## Cc1cc(O)c(Oc2ccccc2C(C)C)nn1 [Compound No. 2418, 3-(2-Isopropylphenoxy)-6-methyl-4-pyridazinol]
  melting point: 259 to 260 °C

## Cc1ccccc1Oc1nnc(C2CC2)cc1O [Compound No. 2423, 6-Cyclopropyl-3-(2-methylphenoxy)-4-pyridazinol]
  melting point: 214 to 215 °C

## C=Cc1cc(O)c(Oc2ccccc2C)nn1 [Compound No. 2436, 3-(2-Methylphenoxy)-6-vinyl-4-pyridazinol]
  melting point: 195 to 197 °C

## CC=Cc1cc(O)c(Oc2ccccc2C)nn1 [Compound No. 2442, 3-(2-Methylphenoxy)-6-(1-propenyl)-4-pyridazinol]
  melting point: 208 to 210 °C

## CC(=O)c1cc(O)c(Oc2ccccc2C)nn1 [Compound No. 2455, 1-[5-Hydroxy-6-(2-methylphenoxy)-3-pyridazinyl]ethanone]
  melting point: 182 to 185 °C

## Cc1ccccc1Oc1nnc(-c2ccccc2)cc1O [Compound No. 2464, 3-(2-Methylphenoxy)-6-phenyl-4-pyridazinol]
  melting point: 236 to 237 °C

## Cc1ccccc1Oc1nnc(-c2cccs2)cc1O [Compound No. 2478, 3-(2-Methylphenoxy)-6-(2-thienyl)-4-pyridazinol]
  melting point: 86 to 87 °C

## Cc1ccccc1Oc1cc(O)c(Oc2ccccc2C)nn1 [Compound No. 2492, 3,6-Bis(2-methylphenoxy)-4-pyridazinol]
  melting point: 247 to 250 °C

## Oc1cc(Cl)nnc1Oc1ccccc1C1CC1(F)Cl (centres unmarked) [Compound No. 2519, 6-Chloro-3-[2-(2-chloro-2-fluorocyclopropyl)phenoxy]-4-pyridazinol]
  melting point: 175 to 177 °C

## CC(C)=Cc1ccccc1Oc1nnc(Cl)cc1O [Compound No. 2540, 6-Chloro-3-[2-(2-methyl-1-propenyl)phenoxy]-4-pyridazinol]
  melting point: 149 to 152 °C

## Oc1cccc(Oc2nnc(Cl)cc2O)c1 [Compound No. 2544, 6-Chloro-3-(3-hydroxyphenoxy)-4-pyridazinol]
  melting point: 248 to 251 °C

## Oc1cc(Cl)nnc1Oc1cccc(OCc2ccccc2)c1 [Compound No. 2547, 3-[3-(Benzyloxy)phenoxy]-6-chloro-4-pyridazinol]
  melting point: 184 to 185 °C

## Oc1cc(Cl)nnc1Oc1ccc(OCc2ccccc2)cc1 [Compound No. 2548, 3-[4-(Benzyloxy)phenoxy]-6-chloro-4-pyridazinol]
  melting point: 170 to 180 °C

## COc1cccc(Oc2nnc(Cl)cc2O)c1I [Compound No. 2551, 6-Chloro-3-(2-iodo-3-methoxyphenoxy)-4-pyridazinol]
  melting point: 231 to 234 °C

## CC1(C)Cc2c(Oc3nnc(Cl)cc3O)cccc21 [Compound No. 2556, 6-Chloro-3-[(7,7-dimethylbicyclo[4.2.0]octa-1,3,5-trien-2-yl)oxy]-4-pyridazinol]
  melting point: 197 to 199 °C

## Cn1ccc2c(Oc3nnc(Cl)cc3O)cccc21 [Compound No. 2565, 6-Chloro-3-[(1-methyl-1H-indol-4-yl)oxy]-4-pyridazinol]
  melting point: 203 to 206 °C

## Cn1ccc2cccc(Oc3nnc(Cl)cc3O)c21 [Compound No. 2568, 6-Chloro-3-[(1-methyl-1H-indol-7-yl)oxy]-4-pyridazinol]
  melting point: 219 to 221 °C

## CC(=O)c1ccc(Oc2nnc(Cl)cc2O)c(C)c1 [Compound No. 2570, 1-{4-[(6-Chloro-4-hydroxy-3-pyridazinyl)oxy]-3-methylphenyl}ethanone]
  melting point: 182 to 184 °C

## CON=C(C)c1ccc(Oc2nnc(Cl)cc2O)c(C)c1 [Compound No. 2571, 1-{4-[(6-Chloro-4-hydroxy-3-pyridazinyl)oxy]-3-methylphenyl}ethanone O-methyloxime]
  melting point: 189 to 192 °C

## COC(=O)c1ccc(OC)c(Oc2nnc(Cl)cc2O)c1 [Compound No. 2574, Methyl 3-[(6-chloro-4-hydroxy-3-pyridazinyl)oxy]-4-methoxybenzoate]
  melting point: 115 to 123 °C

## C=C(C)c1cccc(C)c1Oc1nnc(Cl)cc1O [Compound No. 2577, 6-Chloro-3-(2-isopropenyl-6-methylphenoxy)-4-pyridazinol]
  melting point: 183 to 186 °C

## Cc1c(Br)ccc(C2CC2)c1Oc1nnc(Cl)cc1O [Compound No. 2587, 3-(3-Bromo-6-cyclopropyl-2-methylphenoxy)-6-chloro-4-pyridazinol]
  melting point: 234 to 235 °C

## Cc1c([N+](=O)[O-])ccc(C2CC2)c1Oc1nnc(Cl)cc1O [Compound No. 2589, 6-Chloro-3-(6-cyclopropyl-2-methyl-3-nitrophenoxy)-4-pyridazinol]
  melting point: 140 to 143 °C

## Cc1ccc2c(c1Oc1nnc(Cl)cc1O)COC2 [Compound No. 2592, 6-Chloro-3-[(5-methyl-1,3-dihydro-2-benzofuran-4-yl)oxy]-4-pyridazinol]
  melting point: 188 to 200 °C

## CCSc1cc(Oc2nnc(Cl)cc2O)c(Br)cc1Br [Compound No. 2596, 6-Chloro-3-[2,4-dibromo-5-(ethylsulfanyl)phenoxy]-4-pyridazinol]
  melting point: 225 to 228 °C

## Cc1cc(C)c(F)c(Oc2nnc(Cl)cc2O)c1C [Compound No. 2597, 6-Chloro-3-(2-fluoro-3,5,6-trimethylphenoxy)-4-pyridazinol]
  melting point: 258 to 260 °C

## Cc1cc(C)c(Cl)c(Oc2nnc(Cl)cc2O)c1C [Compound No. 2599, 6-Chloro-3-(2-chloro-3,5,6-trimethylphenoxy)-4-pyridazinol]
  melting point: 298 to 300 °C

## CCc1c(C)cc(C)c(C)c1Oc1nnc(Cl)cc1O [Compound No. 2601, 6-Chloro-3-(2-ethyl-3,5,6-trimethylphenoxy)-4-pyridazinol]
  melting point: 188 to 195 °C

## Cc1cc(C)c([N+](=O)[O-])c(Oc2nnc(Cl)cc2O)c1C [Compound No. 2608, 6-Chloro-3-(2,3,5-trimethyl-6-nitrophenoxy)-4-pyridazinol]
  melting point: 172 to 174 °C
